Values of other authors as cited in US6465018B1, “Dietary supplement for increasing energy, strength, and immune function” (priority 1997, dated 2002).

System: individuals told to avoid physical exercise
Details: daily dosage of 3 grams

For `CN(CC(=O)O)C(=N)N` [creatine monohydrate], the intracellular creatine concentrations is listed as “raised intracellular creatine concentrations to effective levels”.
